This experiment has as its target T1, UDP-3-O-acyl-N-acetylglucosamine deacetylase (Pseudomonas aeruginosa (strain ATCC 15692 / DSM 22644 / CIP 104116 / JCM 14847 / LMG 12228 / 1C / PRS 101 / PAO1), UniProt P47205).
T1 sequence (P47205 whole entry): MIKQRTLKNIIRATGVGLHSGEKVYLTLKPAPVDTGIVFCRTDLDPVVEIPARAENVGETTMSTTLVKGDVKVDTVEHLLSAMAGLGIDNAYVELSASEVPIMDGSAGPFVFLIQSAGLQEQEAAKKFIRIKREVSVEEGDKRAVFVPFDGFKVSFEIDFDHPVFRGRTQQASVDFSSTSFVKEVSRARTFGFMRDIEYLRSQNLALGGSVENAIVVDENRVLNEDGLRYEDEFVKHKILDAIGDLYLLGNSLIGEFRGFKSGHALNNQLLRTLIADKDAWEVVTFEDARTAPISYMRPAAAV
Nature of the experiment: LpxC Enzymatic Activity Assay. The protocol: The experimental procedure is briefly described as follows: The test compound was first dissolved in DMSO to prepare a 10 mM stock solution. The reaction was carried out in a 96-well microplate. First, 20 μL of recombinant Pseudomonas aeruginosa LpxC (purchased from Signalway Antibody, product number AP74647-2) was added to each well, with a final concentration of 5 nM. 5 μL of the compound to be tested was then added, and the compound was diluted 4 times to 8 concentration points with a concentration range of 0.61-10,000 nM. 5 μL of LpxC substrate UDP-3-O—(R-3-hydroxydecanoyl)-GlcNAc (purchased from Biosynth Carbosynth, product number: mu75071) was added, with a final concentration of the substrate of 10 μM. The plate was incubated at 25° C. for 120 minutes. Then 20 μL of 2.0 mg/mL fluorescamine (purchased from sigmaaldrich, product number: F9015, solvent: 1:1 dimethylformamide/acetonitrile) was added to the reaction system, and mixed well for 10 minutes of reaction. Finally, 50 μL of 200 mM sodium phosphate buffer (pH 8.0) was added to terminate the reaction. Reading was carried out using a microplate reader (BMG), and the excitation and emission wavelengths were 390 and 495 nm respectively.

A word on the IC50: it is the concentration at which inhibition is half-maximal.

Structures are written as SMILES.

For `C[C@H](O)c1nccn1Cc1cc(-c2ccc(C#Cc3ccc(N4CCN(C)CC4)cc3)cc2)on1` [US20240382465, Example 65], the IC50 worked out at 64.6 nM.

In the case of `C[C@H](O)c1nccn1Cc1cc(-c2ccc(C#Cc3ccc(NC4CCOCC4)cc3)cc2)on1` [US20240382465, Example 66], the IC50 worked out at 67.9 nM.

For the origin of these results see BindingDB's records for patent US20240382465 (Zhejiang Hisun Pharmaceutical, 2024).
